Test results published in PubChem BioAssay AID1259321 (Sanford-Burnham Center for Chemical Genomics, 2017).
The source made the active and inactive calls.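 How the source made its calls: active means half-maximal concentration for changing protein binding to DNA, from the fitted dose curve, below 10 micromolar; inactive means the rest.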

The compounds below were run against Nuclear receptor subfamily 1 group D member 1 (Homo sapiens) (UniProt P20393) (assay: modulators of Rev-erb alpha DNA binding, dose response, biochemical, FITC-DNA, fluorescence polarization (AID 1259321)).
Sequence of Nuclear receptor subfamily 1 group D member 1 (Homo sapiens) (P20393 whole entry, looked up): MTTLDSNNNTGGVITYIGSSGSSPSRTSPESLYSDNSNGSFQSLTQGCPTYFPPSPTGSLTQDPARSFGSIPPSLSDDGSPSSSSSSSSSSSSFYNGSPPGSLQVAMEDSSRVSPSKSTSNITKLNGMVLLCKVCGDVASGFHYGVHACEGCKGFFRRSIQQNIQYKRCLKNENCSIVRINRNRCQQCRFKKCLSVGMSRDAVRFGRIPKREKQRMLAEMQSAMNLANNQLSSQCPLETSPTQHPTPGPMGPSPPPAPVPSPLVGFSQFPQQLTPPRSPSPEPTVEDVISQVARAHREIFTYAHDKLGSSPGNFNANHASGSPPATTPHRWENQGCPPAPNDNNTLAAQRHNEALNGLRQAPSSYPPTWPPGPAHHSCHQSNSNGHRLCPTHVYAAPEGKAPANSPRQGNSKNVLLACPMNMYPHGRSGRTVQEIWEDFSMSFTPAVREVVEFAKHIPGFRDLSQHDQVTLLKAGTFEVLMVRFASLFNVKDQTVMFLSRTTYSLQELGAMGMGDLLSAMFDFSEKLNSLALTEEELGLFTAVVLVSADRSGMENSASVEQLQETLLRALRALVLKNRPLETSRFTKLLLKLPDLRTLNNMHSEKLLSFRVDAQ
C/C(=N\N(Cc1ccccc1)c1ccccc1)c1ccncc1 was tested, and the IC50 was 6.97 µM.
Compound CN1C(=O)c2cc(NS(=O)(=O)c3ccc(F)cc3)ccc2OC[C@H]2O[C@@H](CC(=O)NCC(F)(F)F)CC[C@@H]21 has an IC50 of 1.62 µM.
Cc1ccc(C2(C(F)(F)F)NC(=O)N3C(=C2C#N)Nc2ccccc23)cc1 (stereo unspecified) was tested, and the IC50 was 2.68 µM.
CCOC(=O)c1sc(NC(=S)NC(=O)c2ccc(OC)cc2)nc1C was tested, and the IC50 was 2.11 µM.
COc1ccc(CC(=O)Nc2cc(C)c3c(=O)oc4ccccc4c3n2)cc1 gave an IC50 of 4.42 µM.
With Cn1c(=O)c(NCCO)c2c3c(cccc31)C(=O)c1ccccc1-2 the IC50 was 3.63 µM.
In the case of Nc1ccc2nc3c(=O)n(C4CCCCC4)c(=O)[nH]c3nc2c1, the IC50 is reported as 6.28 µM.
CCCCN1C(=O)/C(=C/C=C2/CC(C)(C)CN2C)SC1=S was tested, and the IC50 was > 40 µM (inactive).
For CN(C)/C=N/C1=C(C#N)C(c2cccs2)c2ccc3ccccc3c2O1 (stereo unspecified), the IC50 was 3.95 µM.
CCN(CC)c1ccc(/C=C/c2cccc[n+]2C)c(OC)c1 showed an IC50 of 7.32 µM.
Compound Nc1ccc(-c2c3ccc(=O)cc-3oc3cc(O)ccc23)cc1C(=O)O has an IC50 of 5.38 µM.
Work on CN1/C(=C\C=C2/C(=O)Oc3ccccc3C2=O)C(C)(C)c2ccccc21 yielded an IC50 of 4.74 µM.
With Cc1ccc(-n2c(N)c(C#N)c(-c3ccc(Cl)cc3)c(C#N)c2=O)cc1 the IC50 was 4.59 µM.
In the case of CN1C(=O)c2cc(NC(=O)Nc3ccccc3)ccc2OC[C@H]2O[C@@H](CC(=O)NC3CCC3)CC[C@@H]21, the IC50 is reported as “inactive”.
Compound O=[N+]([O-])c1ccc(NCc2ccccc2)c2nonc12 has an IC50 of 1.2 µM.
In the case of Cc1sc2nc(Cc3ccccc3)[nH]c(=O)c2c1-c1ccccc1, the IC50 is reported as > 40 µM (inactive).
CC(C)n1cc(/C=C/c2cc[n+](C)cc2)c2ccccc21 was tested, and the IC50 was “inactive”.
Work on COc1ccccc1-c1nc(SCC(=O)Nc2cc(C)on2)c2c(=O)n(C)c(=O)n(C)c2n1 yielded an IC50 of 5.36 µM.
CSc1nc(N)c(C#N)c(-c2ccc(Cl)cc2)c1C#N showed an IC50 of 4.85 µM.
In the case of CCc1nc(SCC(=O)NC2CCCC2)c2oc3ccccc3c2n1, the IC50 is reported as > 40 µM (inactive).
CCOC(=O)c1ccccc1NC(=O)c1cncc(Br)c1 showed an IC50 of 7.27 µM.
